Results on two compounds are retold here after patent US11883539B2, “Pharmaceutical compositions of berberine with EPA and DHA, and methods thereof” (SHENZHEN HIGHTIDE BIOPHARMACEUTICAL, LTD., priority 2015, dated 2024).

Where two headings read alike, the source gives them in different places.

A short description of this data set: Single-dose pharmacokinetics study in rats (BBR•HCl, EPA-EE, BBR + EPA-EE; 3 rats per group). The data set is classed as in vivo. The conditions noted are these: male, Sprague-Dawley, rat, SD rats, single oral administration, plasma. Here is the method: In the single-dose pharmacokinetics study in rats, after 7-day acclimation, healthy male Sprague-Dawley (SD) rats with the body weight of 210-250 g were randomized into four groups as follows (3 rats per group).
The rats in each group were orally treated with the suspensions of the corresponding testing articles indicated above in 0.5% gum tragacanth respectively. Blood samples of the test animals were collected pre-dose and at the time points of 15 min, 30 min, 1 h, 1.5 h, 2 h, 4 h, 8 h, 24 h post-dose. The collected blood samples (approximately 400 μL) were placed into tubes containing heparin sodium and centrifuged at 8,000 rpm for 6 minutes at 4° C. to separate plasma. The obtained plasma from each sample was stored at −80° C. until being analyzed.
Plasma concentrations of BBR and EPA were determined using tandem mass spectrometry (LC-MS/MS) analysis. A non-compartmental module of WinNonlin® Professional 5.2 (Pharsight; St. Louis MO), was used to calculate PK parameters. The abbreviation AUC(0-t) represents area under the curve from the time of dosing to the time of the last observation, the AUC(0-∞) represents area under the curve from the time of dosing to infinity, and the Cmax represents maximum concentration detected.

One may read the AUC(0-t) as the area under the concentration-time curve up to a stated or last time point. For orientation: Cmax means the peak of the concentration-time curve. As to `COc1ccc2cc3[n+](cc2c1OC)CCc1cc2c(cc1-3)OCO2` [BBR, 5,6-dihydro-9,10-dimethoxybenzo[g]-1,3-benzodioxolo[5,6-a]quinolizinium], the AUC(0-t) (BBR•HCl 51.13 mg/Kg (alone or + EPA-EE 45.48 mg/Kg), read-out: BBR AUC(0-t)) came to 7.46 ng·h/mL. For the same compound, the AUC(0-inf) (BBR•HCl 51.13 mg/Kg (alone or + EPA-EE 45.48 mg/Kg), read-out: BBR AUC(0-∞)) amounted to 8.84 ng·h/mL. Moreover, the Cmax (BBR•HCl 51.13 mg/Kg (alone or + EPA-EE 45.48 mg/Kg), read-out: BBR Cmax) was 0.95 ng/mL.
`CCC=CCC=CCC=CCC=CCC=CCCCC(=O)O` (stereo in doubt) [EPA, (5Z,8Z,11Z,14Z,17Z)-5,8,11,14,17-icosapentaenoic acid]: the AUC(0-t) (EPA-EE 45.48 mg/Kg (alone or + BBR•HCl 51.13 mg/Kg), read-out: EPA (Free acid) AUC(0-t)) amounted to 3750 ng·h/mL. Further, under “EPA-EE 45.48 mg/Kg (alone or + BBR•HCl 51.13 mg/Kg), read-out: EPA (Free acid) AUC(0-∞)”, the AUC(0-inf) is 6600 ng·h/mL. Where the note is “EPA-EE 45.48 mg/Kg (alone or + BBR•HCl 51.13 mg/Kg), read-out: EPA (Free acid) Cmax”, the Cmax turned out to be 629 ng/mL.
